In patent publication US10633354B2, “Substituted tricyclic heterocyclic compounds” (BRISTOL-MYERS SQUIBB COMPANY, priority 2016, dated 2020):

Assays:
circulating lymphocytes = assay: Blood Lymphocyte Reduction (BLR) assay in rodent; format: in vivo; conditions: Lewis rats dosed orally; for BL (×10^3/mm^3): n=2; for Lymp. Red.: vs vehicle group
Description: (§1) Blood Lymphocyte Reduction (BLR) Assay in Rodent:
Lewis rats were dosed orally with vehicle alone (polyethylene glycol 300, “PEG300”) or with test compounds. Compounds were dosed as a solution or suspension in the vehicle, adjusted to reflect the free amount of test article in the event that salt forms are utilized. […] The results were measured as a reduction in the percentage of circulating lymphocytes as compared to the vehicle treated group at the time of measurement. The results represent the average results of all animals within each treatment group (n=2).

[1] = Parent and phosphate concentrations in the BLR assay; conditions: rat, in vivo, po, Lewis rats dosed orally
Description: as §1
Lewis rats were dosed orally with vehicle alone (polyethylene glycol 300, “PEG300”) or with test compounds. Compounds were dosed as a solution or suspension in the vehicle, adjusted to reflect the free amount of test article in the event that salt forms are utilized. Blood was drawn at 24 hr and blood lymphocyte counts were determined on an ADVIA 120 Hematology Analyzer (Siemens Healthcare Diagnostics). The results were measured as a reduction in the percentage of circulating lymphocytes as compared to the vehicle treated group at the time of measurement. The results represent the average results of all animals within each treatment group (n=2).

[2] = as above; conditions: rat, in vivo, po, Lewis rats dosed orally; remark: listed apart in the source

CCCCCCCc1nc2c(s1)-c1ccc([C@H]3CC[C@](N)(CO)C3)cc1CC2 [Example 1, ((1R,3S)-1-amino-3-(2-heptyl-4,5-dihydronaphtho[2,1-d]thiazol-7-yl)cyclopentyl) methanol]
BL (×10^3/mm^3) (circulating lymphocytes; 4 Hours): 5.7 ×10^3/mm^3
Lymp. Red. (circulating lymphocytes; 4 Hours): 40%
BL (×10^3/mm^3) (circulating lymphocytes; 24 Hours): 1.8 ×10^3/mm^3
Lymp. Red. (circulating lymphocytes; 24 Hours): 77%
concentration at 24 h [1]: 111 nM
concentration at 4 h [2]: 66 nM

CCCc1nc2c(s1)-c1ccc([C@H]3CC[C@](N)(CO)C3)cc1CC2 [Example 2, ((1R,3S)-1-amino-3-(2-propyl-4,5-dihydronaphtho[2,1-d]thiazol-7-yl)cyclopentyl) methanol]
BL (×10^3/mm^3) (circulating lymphocytes; 4 Hours): 4.9 ×10^3/mm^3
Lymp. Red. (circulating lymphocytes; 4 Hours): 41%
BL (×10^3/mm^3) (circulating lymphocytes; 24 Hours): 8.2 ×10^3/mm^3
Lymp. Red. (circulating lymphocytes; 24 Hours): 0%
concentration at 24 h [1]: < 19 nM
concentration at 4 h [2]: 108 nM

CCCCCCc1nc2c(s1)-c1ccc([C@H]3CC[C@](N)(CO)C3)cc1CC2 [Example 5, ((1R,3S)-1-amino-3-(2-hexyl-4,5-dihydronaphtho[2,1-d]thiazol-7-yl)cyclopentyl)methanol]
BL (×10^3/mm^3) (circulating lymphocytes; 4 Hours): 2.8 ×10^3/mm^3
Lymp. Red. (circulating lymphocytes; 4 Hours): 66%
BL (×10^3/mm^3) (circulating lymphocytes; 24 Hours): 4.5 ×10^3/mm^3
Lymp. Red. (circulating lymphocytes; 24 Hours): 48%
concentration at 24 h [1]: 9 nM
concentration at 4 h [2]: 77 nM

CCCCc1nc2c(s1)-c1ccc([C@H]3CC[C@](N)(CO)C3)cc1CC2 [Example 6, ((1R,3S)-1-amino-3-(2-butyl-4,5-dihydronaphtho[2,1-d]thiazol-7-yl)cyclopentyl)methanol]
BL (×10^3/mm^3) (circulating lymphocytes; 4 Hours): 3.4 ×10^3/mm^3
Lymp. Red. (circulating lymphocytes; 4 Hours): 59%
BL (×10^3/mm^3) (circulating lymphocytes; 24 Hours): 1.5 ×10^3/mm^3
Lymp. Red. (circulating lymphocytes; 24 Hours): 82%
concentration at 24 h [1]: 66 nM
concentration at 4 h [2]: 109 nM

CCCCOCCOc1nc2c(s1)-c1ccc([C@H]3CC[C@](N)(CO)C3)cc1CC2 [Example 7, ((1R,3S)-1-amino-3-(2-(2-butoxyethoxy)-4,5-dihydronaphtho[2,1-d]thiazol-7-yl)cyclopentyl)methanol]
BL (×10^3/mm^3) (circulating lymphocytes; 4 Hours): 1.9 ×10^3/mm^3
Lymp. Red. (circulating lymphocytes; 4 Hours): 79%
BL (×10^3/mm^3) (circulating lymphocytes; 24 Hours): 1.2 ×10^3/mm^3
Lymp. Red. (circulating lymphocytes; 24 Hours): 87%
concentration at 24 h [1]: 142 nM
concentration at 4 h [2]: 1 nM

CCCCOc1nc2c(s1)-c1ccc([C@H]3CC[C@](N)(CO)C3)cc1CC2 [Example 8, ((1R,3S)-1-amino-3-(2-butoxy-4,5-dihydronaphtho[2,1-d]thiazol-7-yl)cyclopentyl)methanol]
BL (×10^3/mm^3) (circulating lymphocytes; 4 Hours): 2.5 ×10^3/mm^3
Lymp. Red. (circulating lymphocytes; 4 Hours): 74%
BL (×10^3/mm^3) (circulating lymphocytes; 24 Hours): 2.4 ×10^3/mm^3
Lymp. Red. (circulating lymphocytes; 24 Hours): 68%
concentration at 24 h [1]: 7 nM
concentration at 4 h [2]: 35 nM

CCCCCCOc1nc2c(s1)-c1ccc([C@H]3CC[C@](N)(CO)C3)cc1CC2 [Example 9, ((1R,3S)-1-amino-3-(2-(hexyloxy)-4,5-dihydronaphtho[2,1-d]thiazol-7-yl)cyclopentyl) methanol]
BL (×10^3/mm^3) (circulating lymphocytes; 4 Hours): 2.8 ×10^3/mm^3
Lymp. Red. (circulating lymphocytes; 4 Hours): 66%
BL (×10^3/mm^3) (circulating lymphocytes; 24 Hours): 1.4 ×10^3/mm^3
Lymp. Red. (circulating lymphocytes; 24 Hours): 82%
concentration at 24 h [1]: 31 nM
concentration at 4 h [2]: 72 nM

CCCCSc1nc2c(s1)-c1ccc([C@H]3CC[C@](N)(CO)C3)cc1CC2 [Example 10, ((1R,3S)-1-amino-3-(2-(butylthio)-4,5-dihydronaphtho[2,1-d]thiazol-7-yl)cyclopentyl)methanol]
BL (×10^3/mm^3) (circulating lymphocytes; 4 Hours): 1.7 ×10^3/mm^3
Lymp. Red. (circulating lymphocytes; 4 Hours): 82%
BL (×10^3/mm^3) (circulating lymphocytes; 24 Hours): 4.1 ×10^3/mm^3
Lymp. Red. (circulating lymphocytes; 24 Hours): 48%
concentration at 24 h [1]: 1 nM
concentration at 4 h [2]: 9 nM

CCCCCSc1nc2c(s1)-c1ccc([C@H]3CC[C@](N)(CO)C3)cc1CC2 [Example 11, ((1R,3S)-1-amino-3-(2-(pentylthio)-4,5-dihydronaphtho[2,1-d]thiazol-7-yl)cyclopentyl) methanol]
BL (×10^3/mm^3) (circulating lymphocytes; 4 Hours): 2.3 ×10^3/mm^3
Lymp. Red. (circulating lymphocytes; 4 Hours): 72%
BL (×10^3/mm^3) (circulating lymphocytes; 24 Hours): 2.1 ×10^3/mm^3
Lymp. Red. (circulating lymphocytes; 24 Hours): 76%
concentration at 24 h [1]: 16 nM
concentration at 4 h [2]: 87 nM

CCCCCOc1nc2c(s1)-c1ccc([C@H]3CC[C@](N)(CO)C3)cc1CC2 [Example 12, ((1R,3S)-1-amino-3-(2-(pentyloxy)-4,5-dihydronaphtho[2,1-d]thiazol-7-yl)cyclopentyl)methanol]
BL (×10^3/mm^3) (circulating lymphocytes; 4 Hours): 2.8 ×10^3/mm^3
Lymp. Red. (circulating lymphocytes; 4 Hours): 67%
BL (×10^3/mm^3) (circulating lymphocytes; 24 Hours): 1.8 ×10^3/mm^3
Lymp. Red. (circulating lymphocytes; 24 Hours): 80%
concentration at 24 h [1]: 29 nM
concentration at 4 h [2]: 81 nM

CCCCCCOc1nc2ccc3cc([C@H]4CC[C@](N)(CO)C4)ccc3c2s1 [Example 13, ((1R,3S)-1-amino-3-(2-(hexyloxy)naphtho[2,1-d]thiazol-7-yl)cyclopentyl)methanol]
BL (×10^3/mm^3) (circulating lymphocytes; 4 Hours): 2.5 ×10^3/mm^3
Lymp. Red. (circulating lymphocytes; 4 Hours): 73%
BL (×10^3/mm^3) (circulating lymphocytes; 24 Hours): 1.4 ×10^3/mm^3
Lymp. Red. (circulating lymphocytes; 24 Hours): 83%
concentration at 24 h [1]: 78 nM
concentration at 4 h [2]: 65 nM

CCCCSc1nc2ccc3cc([C@H]4CC[C@](N)(CO)C4)ccc3c2s1 [Example 14, ((1R,3S)-1-amino-3-(2-(butylthio)naphtho[2,1-d]thiazol-7-yl)cyclopentyl)methanol]
BL (×10^3/mm^3) (circulating lymphocytes; 4 Hours): 2.6 ×10^3/mm^3
Lymp. Red. (circulating lymphocytes; 4 Hours): 69%
BL (×10^3/mm^3) (circulating lymphocytes; 24 Hours): 2.1 ×10^3/mm^3
Lymp. Red. (circulating lymphocytes; 24 Hours): 75%
concentration at 24 h [1]: 8 nM
concentration at 4 h [2]: 15 nM

CCCCCOc1nc2ccc3cc([C@H]4CC[C@](N)(CO)C4)ccc3c2s1 [Example 15, ((1R,3S)-1-amino-3-(2-(pentyloxy)naphtho[2,1-d]thiazol-7-yl)cyclopentyl)methanol]
BL (×10^3/mm^3) (circulating lymphocytes; 4 Hours): 1.7 ×10^3/mm^3
Lymp. Red. (circulating lymphocytes; 4 Hours): 80%
BL (×10^3/mm^3) (circulating lymphocytes; 24 Hours): 1.8 ×10^3/mm^3
Lymp. Red. (circulating lymphocytes; 24 Hours): 80%
concentration at 24 h [1]: 17 nM
concentration at 4 h [2]: 31 nM

CCCCOc1nc2ccc3cc([C@H]4CC[C@](N)(CO)C4)ccc3c2s1 [Example 16, ((1R,3S)-1-amino-3-(2-butoxynaphtho[2,1-d]thiazol-7-yl)cyclopentyl)methanol]
BL (×10^3/mm^3) (circulating lymphocytes; 4 Hours): 2.9 ×10^3/mm^3
Lymp. Red. (circulating lymphocytes; 4 Hours): 65%
BL (×10^3/mm^3) (circulating lymphocytes; 24 Hours): 1.9 ×10^3/mm^3
Lymp. Red. (circulating lymphocytes; 24 Hours): 77%
concentration at 24 h [1]: 21 nM
concentration at 4 h [2]: 28 nM

CCCCNc1nc2c(s1)-c1ccc([C@H]3CC[C@](N)(CO)C3)cc1CC2 [Example 17, ((1R,3S)-1-amino-3-(2-(butylamino)-4,5-dihydronaphtho[2,1-d]thiazol-7-yl)cyclopentyl)methanol]
BL (×10^3/mm^3) (circulating lymphocytes; 4 Hours): 5.8 ×10^3/mm^3
Lymp. Red. (circulating lymphocytes; 4 Hours): 37%
BL (×10^3/mm^3) (circulating lymphocytes; 24 Hours): 8.4 ×10^3/mm^3
Lymp. Red. (circulating lymphocytes; 24 Hours): 0%
concentration at 24 h [1]: 0 nM
concentration at 4 h [2]: 33 nM

CCCCN(C)c1nc2c(s1)-c1ccc([C@H]3CC[C@](N)(CO)C3)cc1CC2 [Example 18, ((1R,3S)-1-amino-3-(2-(butyl(methyl)amino)-4,5-dihydronaphtho[2,1-d]thiazol-7-yl)cyclopentyl)methanol]
BL (×10^3/mm^3) (circulating lymphocytes; 4 Hours): 5.9 ×10^3/mm^3
Lymp. Red. (circulating lymphocytes; 4 Hours): 30%
BL (×10^3/mm^3) (circulating lymphocytes; 24 Hours): 6.4 ×10^3/mm^3
Lymp. Red. (circulating lymphocytes; 24 Hours): 27%
concentration at 24 h [1]: 18 nM
concentration at 4 h [2]: 113 nM

Cc1ccc(-c2nc3c(s2)-c2ccc([C@H]4CC[C@](N)(CO)C4)cc2CC3)cc1 [Example 19, ((1R,3S)-1-amino-3-(2-(p-tolyl)-4,5-dihydronaphtho[2,1-d]thiazol-7-yl)cyclopentyl)methanol]
BL (×10^3/mm^3) (circulating lymphocytes; 4 Hours): 7.5 ×10^3/mm^3
Lymp. Red. (circulating lymphocytes; 4 Hours): 9%
BL (×10^3/mm^3) (circulating lymphocytes; 24 Hours): 8.2 ×10^3/mm^3
Lymp. Red. (circulating lymphocytes; 24 Hours): 2%
concentration at 24 h [1]: 37 nM
concentration at 4 h [2]: 48 nM

COc1cccc(-c2nc3c(s2)-c2ccc([C@H]4CC[C@](N)(CO)C4)cc2CC3)c1 [Example 20, ((1R,3S)-1-amino-3-(2-(3-methoxyphenyl)-4,5-dihydronaphtho[2,1-d]thiazol-7-yl)cyclopentyl)methanol]
BL (×10^3/mm^3) (circulating lymphocytes; 4 Hours): 5.7 ×10^3/mm^3
Lymp. Red. (circulating lymphocytes; 4 Hours): 31%
BL (×10^3/mm^3) (circulating lymphocytes; 24 Hours): 3.1 ×10^3/mm^3
Lymp. Red. (circulating lymphocytes; 24 Hours): 63%
concentration at 24 h [1]: 68 nM
concentration at 4 h [2]: 97 nM
